How the values were obtained:
BMX = molecular target: T1, BMX (Homo sapiens, UniProt P51813); assay: Other kinase MSA: BMX; format: biochemical
T1 sequence (P51813 1-675): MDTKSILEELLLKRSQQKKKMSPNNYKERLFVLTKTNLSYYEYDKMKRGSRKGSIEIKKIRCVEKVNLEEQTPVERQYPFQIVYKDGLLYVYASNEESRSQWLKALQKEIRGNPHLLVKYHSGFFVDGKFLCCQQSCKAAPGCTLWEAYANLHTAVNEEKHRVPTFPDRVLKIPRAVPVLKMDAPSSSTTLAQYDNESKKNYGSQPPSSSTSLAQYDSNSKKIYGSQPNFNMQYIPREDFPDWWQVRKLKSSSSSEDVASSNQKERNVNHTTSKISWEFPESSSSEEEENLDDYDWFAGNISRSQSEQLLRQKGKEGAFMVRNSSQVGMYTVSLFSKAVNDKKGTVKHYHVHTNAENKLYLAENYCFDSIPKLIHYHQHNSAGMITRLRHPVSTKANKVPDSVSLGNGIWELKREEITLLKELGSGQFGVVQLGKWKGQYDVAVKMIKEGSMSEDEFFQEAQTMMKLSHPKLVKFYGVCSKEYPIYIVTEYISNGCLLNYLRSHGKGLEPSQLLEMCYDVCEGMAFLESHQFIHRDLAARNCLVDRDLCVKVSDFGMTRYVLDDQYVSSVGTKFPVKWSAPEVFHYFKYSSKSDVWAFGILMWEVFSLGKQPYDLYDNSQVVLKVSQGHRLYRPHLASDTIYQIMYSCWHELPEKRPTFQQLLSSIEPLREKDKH
Method: (§1) Kinase activity, unless otherwise indicated, was measured in vitro using an electrophoretic mobility shift assay (MSA). The phosphorylation of a peptide substrate by BTK and other kinases was measured. The kinase reactions were assembled in a total volume of 25 μL per well in 384 well plates. The following was added to each well: compound buffer (or control); enzyme buffer; and substrate buffer, as further described below.
(§2) Enzyme and compound/inhibitor were optionally pre-incubated. To each well was added: 8 μL of 2.5×ATP and substrate in 1× Master Buffer (1× Master Buffer as described above). The plate was incubated at room temperature for 3 hours. […] OG488 was Oregon Green dye, which was conjugated to the peptide substrate. […] The kinase activity for the kinases in Table 3 were measured at 3 hours incubation time, except that in the case of MAP2K1 and MAP2K2 assay, pre-activation of ERK was done for 30 min with 6 μM of ATP, and then the detection of activated ERK in the presence of compounds was done after 60 minutes of incubation.
(§3) The terminated reactions were analyzed using a 12 channel LABCHIP® 3000 microfluidic detection instrument (available from Caliper Life Sciences, Waltham, Mass.). […] Change in the relative fluorescence intensity of the substrate and product peaks was the parameter measured, reflecting enzyme activity. […]

BLK = BLK (Homo sapiens, UniProt P51451); assay: Other kinase MSA: BLK; format: biochemical
Method: as §1, §2, §3

Sequence of BLK (P51451 whole entry, species assumed): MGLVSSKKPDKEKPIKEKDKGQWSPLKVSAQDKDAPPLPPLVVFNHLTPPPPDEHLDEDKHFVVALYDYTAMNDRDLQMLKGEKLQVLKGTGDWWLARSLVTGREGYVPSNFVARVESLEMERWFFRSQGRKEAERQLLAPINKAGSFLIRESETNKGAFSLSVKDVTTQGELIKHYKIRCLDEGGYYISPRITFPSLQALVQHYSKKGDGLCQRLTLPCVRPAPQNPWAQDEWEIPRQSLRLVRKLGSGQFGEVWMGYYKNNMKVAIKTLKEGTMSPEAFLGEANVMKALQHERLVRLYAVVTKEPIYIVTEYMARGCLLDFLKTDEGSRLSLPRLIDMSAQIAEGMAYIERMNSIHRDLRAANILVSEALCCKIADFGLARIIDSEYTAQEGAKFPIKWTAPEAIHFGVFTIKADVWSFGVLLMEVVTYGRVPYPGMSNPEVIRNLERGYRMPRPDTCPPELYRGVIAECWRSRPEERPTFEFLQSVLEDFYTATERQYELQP

C=CC(=O)N1CCN([C@@H]2CCNc3c2nn(-c2ccc(Oc4ccccc4)cc2)c3C(N)=O)CC1 [Example 6, (7R)-2-(4-phenoxyphenyl)-7-[4-(prop-2-enoyl)piperazin-1-yl]-4,5,6,7-tetrahydro-2H-pyrazolo[4,3-b]pyridine-3-carboxamide]
IC50 (BMX): 15.2 nM | IC50 (BLK): 137 nM

From US20220213092A1, “BICYCLIC PYRAZOLE BRUTON'S TYROSINE KINASE INHIBITORS” (AbbVie Inc., priority 2020, published 2022)
